pIC50: −log10 of the molar value.
Assays:
[1] = test system: Leishmania donovani; assay: Inhibitory activity against Leishmania donovani (amastigote); type: functional, organism-based
[2] = test system: Trypanosoma cruzi; assay: Inhibitory activity against Trypanosoma cruzi; type: functional, organism-based
[3] = Cell toxicity was evaluated; type: functional
[4] = test system: Nucleic Acid
[5] = test system: Nucleic Acid; remark: listed apart in the source
Description: DNA binding affinity measured as an increase in thermal melting of poly(dA.dT)2

[6] = test system: Leishmania donovani; assay: Inhibitory activity against Leishmania donovani (macrophage); type: functional, organism-based

Row | Structure (SMILES) | pIC50 ([1]; read-out: IC50) | pIC50 [2] | pIC50 [3] | ΔTm [4] | ΔTm [5] | pIC50 [6] | pIC50 [1]
1 | CSc1cc(-c2ccc(-c3ccc(/N=C(\N)c4ccccn4)c(SC)c3)o2)ccc1/N=C(\N)c1ccccn1 | 6.46 | 6.82 | 5.14 | 0 | 1 | 6.82 | –
2 | N=C(N)c1ccc(-c2ccc(-c3ccc(C(=N)N)cc3)o2)cc1 [FURAMIDINE] | 5.57 | 4.63 | 5.19 | 11.7 | 25 | – | –
3 | CCCCCCCCCCCCCCCCOP(=O)([O-])OCC[N+](C)(C)C [MILTEFOSINE] | – | – | – | – | – | 6.00 | –
4 | CSc1cc(-c2ccc(-c3ccc(N=C(N)N)c(SC)c3)o2)ccc1N=C(N)N | 4.65 | 3.94 | 4.17 | 2.6 | 12.2 | < 4.72 | –
5 | COc1cc(-c2ccc(-c3ccc(N=C(N)N)c(OC)c3)o2)ccc1N=C(N)N | 4.84 | 4.54 | 4.40 | 6.2 | 15.4 | < 4.54 | –
6 | CCOc1cc(-c2ccc(-c3ccc(N=C(N)N)c(OCC)c3)o2)ccc1N=C(N)N | 4.95 | 3.82 | 4.13 | 6.8 | 16.5 | < 4.40 | –
7 | Cc1cc(NC(=N)c2ccccn2)ccc1-c1ccc(-c2ccc(NC(=N)c3ccccn3)cc2C)o1 | 6.42 | 6.68 | 4.95 | 8.9 | 22.6 | 6.22 | –
8 | N=C(Nc1ccc(-c2ccc(-c3ccc(NC(=N)c4ccccn4)c(Cl)c3)o2)cc1Cl)c1ccccn1 | 6.29 | 6.30 | 3.89 | 1.5 | 0.6 | – | –
9 | COc1cc(NC(=N)N)ccc1-c1ccc(-c2ccc(NC(=N)N)cc2OC)o1 | 4.73 | 5.89 | 4.70 | 2.8 | 15.2 | 5.28 | –
10 | CC(C)Oc1cc(NC(=N)N)ccc1-c1ccc(-c2ccc(NC(=N)N)cc2OC(C)C)o1 | 5.02 | 4.46 | 4.80 | 1.5 | 12 | < 5.22 | –
11 | Cc1c(/N=C(\N)c2ccccn2)ccc(-c2ccc(-c3ccc(/N=C(\N)c4ccccn4)c(C)c3C)o2)c1C | 5.94 | 6.04 | 4.22 | 4.2 | 13.8 | 5.44 | –
12 | N=C(N)Nc1ccc(-c2ccc(-c3ccc(NC(=N)N)cc3Cl)o2)c(Cl)c1 | 5.21 | 4.57 | 4.85 | 4.7 | 26.1 | < 5.17 | –
13 | COc1cc(-c2ccc(-c3ccc(/N=C(\N)c4ccccn4)c(OC)c3)o2)ccc1/N=C(\N)c1ccccn1 | 6.54 | 6.00 | 5.10 | 6.6 | 15.2 | 6.80 | –
14 | Cc1cc(NC(=N)N)ccc1-c1ccc(-c2ccc(NC(=N)N)cc2C)o1 | 5.48 | 5.49 | 4.84 | 6.9 | 17.8 | < 5.22 | –
15 | Cc1c(N=C(N)N)ccc(-c2ccc(-c3ccc(N=C(N)N)c(C)c3C)o2)c1C | 5.38 | 5.57 | 4.48 | 1.3 | 3.8 | < 4.72 | –
16 | N=C(Nc1ccc(-c2ccc(-c3ccc(NC(=N)c4ccccc4)cc3)o2)cc1)c1ccccc1 | < 4.00 | 4.86 | 5.42 | 15 | 28 | < 5.10 | –
17 | COc1cc(NC(=N)c2ccccn2)ccc1-c1ccc(-c2ccc(NC(=N)c3ccccn3)cc2OC)o1 | 7.00 | 6.24 | 4.90 | 7.8 | 19 | 6.32 | –
18 | N=C(N)Nc1ccc(-c2ccc(-c3ccc(NC(=N)N)cc3C(F)(F)F)o2)c(C(F)(F)F)c1 | 4.83 | 4.51 | 4.95 | 0 | 5.9 | < 5.25 | –
19 | N=C(N)Nc1ccc(-c2ccc(-c3ccc(NC(=N)N)cc3)o2)cc1 | 4.96 | 4.07 | 3.84 | 10.8 | 21.6 | < 4.62 | –
20 | N=C(N)Nc1ccc(-c2ccc(-c3ccc(N=C(N)N)c(Cl)c3)o2)cc1Cl | < 4.30 | 4.36 | 4.45 | 2.6 | 12.7 | < 5.20 | –
21 | O=C(Cn1ccnc1[N+](=O)[O-])NCc1ccccc1 [BENZNIDAZOLE] | – | 5.90 | – | – | – | – | –
22 | N=C(Nc1ccc(-c2ccc(-c3ccc(NC(=N)c4ccccn4)cc3Cl)o2)c(Cl)c1)c1ccccn1 | 6.18 | 6.31 | 5.10 | 0 | 5.2 | 6.89 | –
23 | N=C(N)c1ccc(OCCCCCOc2ccc(C(=N)N)cc2)cc1 [PENTAMIDINE] | – | 5.15 | 5.38 | 4.8 | 12.8 | 5.03 | 5.59
24 | N=C(Nc1ccc(-c2ccc(-c3ccc(NC(=N)c4ccccn4)cc3)o2)cc1)c1ccccn1 | 6.26 | 5.02 | 4.77 | 7.5 | 19.6 | 5.84 | –

From ChEMBL document CHEMBL1136067, “The activity of diguanidino and 'reversed' diamidino 2,5-diarylfurans versus Trypanosoma cruzi and Leishmania donovani” (Bioorg Med Chem Lett, 2003)
